The source of these data is patent US9969716B2, “Indole derivatives as modulators of methyl modifying enzymes, compositions and uses thereof” (Constellation Pharmaceuticals, Inc., priority 2013, dated 2018).

As a reminder, the pIC50 is the IC50 on a negative log10 scale, so that one unit is a factor of ten. Low readings indicate a high IC50, high ones a low IC50.

For one experiment, the target named is EZH2 (Homo sapiens, UniProt Q15910). As to the kind of experiment: EZH2 assay (rPRC2, 3H SAM methyl transfer to biotinylated oligonucleosomes, FlashPlate). The format is biochemical. In short, it runs like this: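 rPRC2 (2 nM EZH2) with 0.2 μM biotinylated oligonucleosomes, 3.6 μM H3K27me3 peptide, 0.2 μM 3H SAM in pH 8.5 Tris buffer; compounds (80 to 0.16 μM) preincubated 20 min, reaction 60 min, SAH/EDTA quench. Methylated product captured on streptavidin FlashPlates, scintillation counted.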

The target of the next experiment is Y641N EZH2 (Homo sapiens, UniProt Q15910, Y641N). In words: Y641N EZH2 assay (as EZH2 assay, H3K27Me2 oligonucleosomes as substrate). The format is biochemical. As for the experimental part:
EZH2 Assay: Assays were carried out by mixing rPRC2 together with biotinylated oligonucleosome substrates in the presence of the radio-labeled enzyme co-factor, S-adenosyl-L-methionine (^3H SAM) (Perkin Elmer) and monitoring the enzymatically mediated transfer of tritiated methyl groups from ^3H SAM to histone lysine residues. The amount of resulting tritiated methyl histone product was measured by first capturing the biotinylated oligonucleosomes in streptavidin (SAV) coated FlashPlates (Perkin Elmer), followed by a wash step to remove un-reacted ^3H SAM, and then counting on a TopCount NXT 384 well plate scintillation counter (Perkin Elmer). The final assay conditions for EZH2 were as follows: 50 mM Tris Buffer pH 8.5, 1 mM DTT, 69 μM Brij-35 detergent, 5.0 mM MgCl2, 0.1 mg/mL BSA, 0.2 μM ^3H SAM, 0.2 μM biotinylated oligonucleosomes, 3.6 μM H3K27me3 peptide and 2 nM EZH2.
A 12.5 μL volume of the HMT enzyme, H3K27me3 peptide and oligonucleosome substrate in assay buffer was added to each well of the assay plate using a Multidrop Combi (ThermoFisher). Compounds were pre-incubated with the enzyme for 20 min, followed by initiation of the methyltransferase reaction by addition of 12.5 μL of ^3H SAM in assay buffer (final volume=25 μL). The final concentrations of compounds ranged from a top default concentration of 80 μM down to 0.16 μM in ten 2-fold dilution steps. Reactions were carried out for 60 minutes and quenched with 20 μL per well of 1.96 mM SAH, 50 mM Tris pH 8.5, 200 mM EDTA. Stopped reactions were transferred to SAV coated Flashplates (Perkin Elmer), incubated for 120 min, washed with a plate washer, and then read on the TopCount NXT (1.0 min/well) to measure the amount of methyl histone product formed during the reaction.

Experiment [1] concerns H3K27me3 mark in HeLa cells. In words: H3K27me3 Alpha Hela Assay (AlphaLISA). The following applies: Homo sapiens, 72 hrs, read-out: EZH2_Cell_H3K27me3_Alpha_HeLa (EC50_K27me3). The experiment is classed as cell-based. In short, it runs like this:
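Ten-dose 3-fold series on HeLa cells (1,000/well, 10% DMEM), 72 hrs at 37° C. Lysis, histone extraction, then AlphaLISA with anti-K27me3 acceptor beads, biotinylated anti-H3 C-ter antibody (3 nM final) and streptavidin donor beads (20 μg/mL final); duplicate plate used for viability. DMSO-normalized dose-response curves fitted.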

pEC50, pIC50: −log10 of the molar value. Some results are limits rather than exact numbers.

Y641N EZH2, sequence (Q15910 whole entry Y641N): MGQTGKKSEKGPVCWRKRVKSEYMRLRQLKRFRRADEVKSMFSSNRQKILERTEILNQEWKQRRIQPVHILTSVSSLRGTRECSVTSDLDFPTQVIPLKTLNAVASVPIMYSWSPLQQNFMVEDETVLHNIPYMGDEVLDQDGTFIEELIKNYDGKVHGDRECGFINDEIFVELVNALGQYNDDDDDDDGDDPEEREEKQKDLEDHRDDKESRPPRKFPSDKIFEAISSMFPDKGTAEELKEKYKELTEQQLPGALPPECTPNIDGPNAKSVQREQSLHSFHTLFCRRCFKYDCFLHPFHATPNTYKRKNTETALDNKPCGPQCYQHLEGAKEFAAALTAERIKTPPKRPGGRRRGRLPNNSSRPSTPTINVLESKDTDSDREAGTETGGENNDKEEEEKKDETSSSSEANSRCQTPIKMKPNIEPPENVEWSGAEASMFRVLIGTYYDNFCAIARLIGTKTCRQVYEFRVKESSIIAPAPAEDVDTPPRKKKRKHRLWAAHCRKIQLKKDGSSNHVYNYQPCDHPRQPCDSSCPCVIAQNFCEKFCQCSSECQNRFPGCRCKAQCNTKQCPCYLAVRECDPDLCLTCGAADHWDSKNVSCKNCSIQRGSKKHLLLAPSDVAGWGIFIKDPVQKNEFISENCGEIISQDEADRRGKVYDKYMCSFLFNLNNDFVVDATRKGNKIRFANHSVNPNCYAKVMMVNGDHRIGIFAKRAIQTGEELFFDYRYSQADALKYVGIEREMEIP
Y641N EZH2, sequence (O75530 whole entry partner): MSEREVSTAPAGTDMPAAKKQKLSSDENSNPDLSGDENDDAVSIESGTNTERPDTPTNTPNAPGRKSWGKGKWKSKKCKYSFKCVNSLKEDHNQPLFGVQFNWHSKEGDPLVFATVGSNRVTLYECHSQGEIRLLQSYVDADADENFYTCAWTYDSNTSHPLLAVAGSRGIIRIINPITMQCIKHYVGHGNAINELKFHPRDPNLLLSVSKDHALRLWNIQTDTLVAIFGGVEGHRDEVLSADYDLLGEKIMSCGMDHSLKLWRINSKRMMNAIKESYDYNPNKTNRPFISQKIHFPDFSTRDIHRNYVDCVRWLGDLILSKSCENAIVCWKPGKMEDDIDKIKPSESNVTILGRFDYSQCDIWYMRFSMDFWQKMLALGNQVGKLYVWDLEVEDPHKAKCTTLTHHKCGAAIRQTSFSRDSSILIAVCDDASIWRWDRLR
Y641N EZH2, sequence (Q15022 whole entry partner): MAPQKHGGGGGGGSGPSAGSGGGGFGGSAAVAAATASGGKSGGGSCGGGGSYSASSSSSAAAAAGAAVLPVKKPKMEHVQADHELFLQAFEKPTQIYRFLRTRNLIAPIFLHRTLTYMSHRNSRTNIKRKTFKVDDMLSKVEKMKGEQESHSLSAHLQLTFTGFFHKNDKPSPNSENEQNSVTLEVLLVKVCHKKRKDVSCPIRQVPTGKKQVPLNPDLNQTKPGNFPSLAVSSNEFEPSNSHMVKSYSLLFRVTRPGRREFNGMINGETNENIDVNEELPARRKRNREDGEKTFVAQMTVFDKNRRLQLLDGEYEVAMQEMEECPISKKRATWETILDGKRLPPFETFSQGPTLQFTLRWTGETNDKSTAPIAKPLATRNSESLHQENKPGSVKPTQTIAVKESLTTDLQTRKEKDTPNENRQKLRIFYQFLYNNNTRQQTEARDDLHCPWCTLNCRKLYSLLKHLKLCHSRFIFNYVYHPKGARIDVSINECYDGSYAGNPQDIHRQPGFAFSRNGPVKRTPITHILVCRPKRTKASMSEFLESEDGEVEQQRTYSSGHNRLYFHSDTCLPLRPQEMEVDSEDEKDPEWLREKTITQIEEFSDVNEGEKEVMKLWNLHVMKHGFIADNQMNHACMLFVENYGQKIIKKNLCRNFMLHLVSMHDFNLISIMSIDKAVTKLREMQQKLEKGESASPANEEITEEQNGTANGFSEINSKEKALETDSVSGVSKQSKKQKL
EZH2, sequence (Q15910 whole entry): as the sequence (Q15910 whole entry Y641N) above, with N641Y counted along it
EZH2, sequence (O75530 whole entry partner): as the sequence (O75530 whole entry partner) above
EZH2, sequence (Q15022 whole entry partner): as the sequence (Q15022 whole entry partner) above

For the compound `COc1cc(C)[nH]c(=O)c1CNC(=O)c1c(C)n([C@H](C)C2CCN(c3cccnc3)CC2)c2ccccc12` [Compound 125], the pIC50 against EZH2 and against Y641N EZH2 was greater than 7.00 each time. In addition, the pEC50 in experiment [1] was greater than 6.40.

Consider `Cc1cc(C)c(CNC(=O)c2c(C)n([C@H](C)C3CCN(S(=O)(=O)C4CCN(C)CC4)CC3)c3ccccc23)c(=O)[nH]1` [Compound 139], for which the negative logarithm of the IC50 (pIC50) against EZH2 and at Y641N EZH2 was greater than 7.00 throughout. Moreover, the pEC50 in experiment [1] was greater than 6.40.

As for `Cc1cc(OC(F)F)c(CNC(=O)c2c(C)n([C@H](C)C3CCN(CC(F)F)CC3)c3ccccc23)c(=O)[nH]1` [Compound 110], the pIC50 on EZH2 and on Y641N EZH2 was greater than 7.00 in each case. Also, the pEC50 in experiment [1] was greater than 6.40.

As to `COc1cc(C)[nH]c(=O)c1CNC(=O)c1c(C)n([C@H](C)C2CCN(c3ncc(Cl)cn3)CC2)c2ccccc12` [Compound 130], the pIC50 against EZH2 and at Y641N EZH2 was greater than 7.00 throughout. In addition, the pEC50 in experiment [1] was greater than 6.40.

For the compound `COc1cc(C)[nH]c(=O)c1CNC(=O)c1c(C)n([C@H](C)C2CCN(c3ccc(C)nc3)CC2)c2ccccc12` [Compound 133], the pIC50 against EZH2 and against Y641N EZH2 was greater than 7.00 in each case. Besides, the pEC50 in experiment [1] is greater than 6.40.

For `COc1cc(C)[nH]c(=O)c1CNC(=O)c1c(C)n([C@H](C)C2CCN(S(=O)(=O)C3CC3)CC2)c2ccccc12` [Compound 117, (R)-1-(1-(1-(cyclopropylsulfonyl)piperidin-4-yl)ethyl)-N-((4-methoxy-6-methyl-2-oxo-1,2-dihydropyridin-3-yl)methyl)-2-methyl-1H-indole-3-carboxamide], the pIC50 on EZH2 and against Y641N EZH2 was greater than 7.00 throughout. Besides, the pEC50 in experiment [1] was greater than 6.40.

Take `CNc1cc(C)[nH]c(=O)c1CNC(=O)c1c(C)n([C@H](C)C2CCN(c3ncc(F)cn3)CC2)c2ccccc12` [Compound 146]: the pIC50 against EZH2 and against Y641N EZH2 was greater than 7.00 throughout. In experiment [1], the pEC50 was 5.70 to 6.40.

Regarding `COc1cc(C)[nH]c(=O)c1CNC(=O)c1c(C)n([C@H](C)C2CCN(c3ncc(F)cn3)CC2)c2ccccc12` [Compound 120], the pIC50 against EZH2 and at Y641N EZH2 was greater than 7.00 in each case. For the same compound, the pEC50 in experiment [1] is greater than 6.40.

Consider `COc1cc(C)[nH]c(=O)c1CNC(=O)c1c(C)n([C@H](C)C2CCN(c3cnccn3)CC2)c2ccccc12` [Compound 149], for which the pIC50 against EZH2 and on Y641N EZH2 was greater than 7.00 in each case. Further, in experiment [1], the pEC50 was 5.70 to 6.40.

For the compound `Cc1cc(C)c(CNC(=O)c2c(C)n([C@H](C)C3CCN(c4ccc(CN5CCOCC5)cc4)CC3)c3ccccc23)c(=O)[nH]1` [Compound 160], the pIC50 against EZH2 and at Y641N EZH2 was greater than 7.00 throughout. Moreover, the pEC50 in experiment [1] was 5.70 to 6.40.

Turning to `COc1cc(C)[nH]c(=O)c1CNC(=O)c1c(C)n([C@H](C)C2CCN(c3ccncn3)CC2)c2ccccc12` [Compound 164], the pIC50 at EZH2 and against Y641N EZH2 was greater than 7.00 in each case. In experiment [1], the pEC50 is less than 5.70.

For `COc1cc(C)[nH]c(=O)c1CNC(=O)c1c(C)n([C@H](C)C2CCN(Cc3c(F)cccc3F)CC2)c2ccccc12` [Compound 150], the pIC50 against EZH2 and on Y641N EZH2 was greater than 7.00 in each case. The pEC50 in experiment [1] is 5.70 to 6.40.

For the compound `COc1cc(C)[nH]c(=O)c1CNC(=O)c1c(C)n([C@H](C)C2CCN(C(CF)CF)CC2)c2ccccc12` [Compound 166], the pIC50 against EZH2 and against Y641N EZH2 was greater than 7.00 throughout. Further, the pEC50 in experiment [1] was less than 5.70.

Consider `COCCOCCOC(=O)N1CCC([C@@H](C)n2c(C)c(C(=O)NCc3c(OC)cc(C)[nH]c3=O)c3ccccc32)CC1` [Compound 140], for which the pIC50 on EZH2 and on Y641N EZH2 was greater than 7.00 throughout. Further, the pEC50 in experiment [1] was greater than 6.40.

`COc1cc(C)[nH]c(=O)c1CNC(=O)c1c(C)n([C@H](C)C2CCN(Cc3ccc(F)cc3)CC2)c2ccccc12` [Compound 122]: the pIC50 against EZH2 and against Y641N EZH2 was greater than 7.00 throughout. Moreover, the pEC50 in experiment [1] is greater than 6.40.

With `Cc1cc(Cl)c(CNC(=O)c2c(C)n([C@H](C)C3CCN(CC(C)(F)F)CC3)c3ccccc23)c(=O)[nH]1` [Compound 105], the pIC50 against EZH2 and against Y641N EZH2 was greater than 7.00 each time. The pEC50 in experiment [1] was greater than 6.40.

Take `COCCOCCOCCOCCOCCOCCOC(=O)N1CCC([C@@H](C)n2c(C)c(C(=O)NCc3c(OC)cc(C)[nH]c3=O)c3ccccc32)CC1` [Compound 165]: the pIC50 against EZH2 was greater than 7.00; at Y641N EZH2, 6.00 to 7.00. In addition, the pEC50 in experiment [1] is less than 5.70.

As to `CNc1cc(C)[nH]c(=O)c1CNC(=O)c1c(C)n([C@H](C)C2CCN(CCC(F)(F)F)CC2)c2ccccc12` [Compound 155], the pIC50 on EZH2 and against Y641N EZH2 was greater than 7.00 in each case. Also, the pEC50 in experiment [1] is 5.70 to 6.40.

In the case of `COc1cc(C)[nH]c(=O)c1CNC(=O)c1c(C)n([C@H](C)C2CCN(c3ccc(Cl)cc3)CC2)c2ccccc12` [Compound 154], the negative logarithm of the IC50 (pIC50) against EZH2 and at Y641N EZH2 was greater than 7.00 in each case. In addition, in experiment [1], the pEC50 is 5.70 to 6.40.

Regarding `Cc1cc(C)c(CNC(=O)c2c(C)n([C@H](C)C3CCN(c4ccc(CN5CCOCC5)cn4)CC3)c3ccccc23)c(=O)[nH]1` [Compound 159], the pIC50 at EZH2 and against Y641N EZH2 was greater than 7.00 throughout. Further, the pEC50 in experiment [1] was 5.70 to 6.40.

Turning to `COc1cc(C)[nH]c(=O)c1CNC(=O)c1c(C)n([C@H](C)C2CCN(CC(C)(C)F)CC2)c2ccccc12` [Compound 116], the pIC50 against EZH2 and against Y641N EZH2 was greater than 7.00 each time. Also, in experiment [1], the pEC50 is greater than 6.40.

For `Cc1cc(C)c(CNC(=O)c2c(C)n([C@H](C)C3CCN(S(=O)(=O)CCN4CCCC4)CC3)c3ccccc23)c(=O)[nH]1` [Compound 161], the pIC50 against EZH2 and against Y641N EZH2 was greater than 7.00 each time. Besides, in experiment [1], the pEC50 is 5.70 to 6.40.

`COc1cc(C)[nH]c(=O)c1CNC(=O)c1c(C)n([C@H](C)C2CCN(CC(C)(C)C(F)(F)F)CC2)c2ccccc12` [Compound 136]: the pIC50 at EZH2 and on Y641N EZH2 was 6.00 to 7.00 each time. In addition, the pEC50 in experiment [1] was greater than 6.40.

On to `CCN(CC)C(=O)CN1CCC([C@@H](C)n2c(C)c(C(=O)NCc3c(OC)cc(C)[nH]c3=O)c3ccccc32)CC1` [Compound 168], for which the pIC50 against EZH2 and against Y641N EZH2 was greater than 7.00 in each case. Moreover, the pEC50 in experiment [1] was less than 5.70.

In the case of `Cc1cc(OC(F)F)c(CNC(=O)c2c(C)n([C@H](C)C3CCN(CC(C)(F)F)CC3)c3ccccc23)c(=O)[nH]1` [Compound 111], the pIC50 against EZH2 and against Y641N EZH2 was greater than 7.00 each time. Besides, in experiment [1], the pEC50 is greater than 6.40.

`CCS(=O)(=O)N1CCC([C@@H](C)n2c(C)c(C(=O)NCc3c(Cl)cc(C)[nH]c3=O)c3ccccc32)CC1` [Compound 107]: the pIC50 against EZH2 and against Y641N EZH2 was greater than 7.00 in each case. Besides, the pEC50 in experiment [1] is greater than 6.40.

For the compound `Cc1cc(Cl)c(CNC(=O)c2c(C)n([C@H](C)C3CCN(CC(F)F)CC3)c3ccccc23)c(=O)[nH]1` [Compound 106], the pIC50 against EZH2 and against Y641N EZH2 was greater than 7.00 each time. Besides, in experiment [1], the pEC50 was greater than 6.40.

On to `COc1cc(C)[nH]c(=O)c1CNC(=O)c1c(C)n([C@H](C)C2CCN(C(=O)c3ccccc3)CC2)c2ccccc12` [Compound 153], for which the pIC50 at EZH2 and at Y641N EZH2 was greater than 7.00 throughout. In experiment [1], the pEC50 was 5.70 to 6.40.

As to `COc1cc(C)[nH]c(=O)c1CNC(=O)c1c(C)n([C@H](C)C2CCN(c3ccc(F)cc3)CC2)c2ccccc12` [Compound 141], the pIC50 on EZH2 and on Y641N EZH2 was greater than 7.00 throughout. The pEC50 in experiment [1] was greater than 6.40.

As for `COc1cc(C)[nH]c(=O)c1CNC(=O)c1c(C)n([C@H](C)C2CCN(C(=O)C3(C(F)(F)F)CC3)CC2)c2ccccc12` [Compound 115], the pIC50 on EZH2 and on Y641N EZH2 was greater than 7.00 in each case. Further, the pEC50 in experiment [1] is greater than 6.40.

On to `COc1cc(C)[nH]c(=O)c1CNC(=O)c1c(C)n([C@H](C)C2CCN(CC(C)(F)F)CC2)c2ccccc12` [Compound 101, (R)-1-(1-(1-(2,2-difluoropropyl)piperidin-4-yl)ethyl)-N-((4-methoxy-6-methyl-2-oxo-1,2-dihydropyridin-3-yl)methyl)-2-methyl-1H-indole-3-carboxamide], for which the pIC50 against EZH2 and on Y641N EZH2 was greater than 7.00 each time. For the same compound, the pEC50 in experiment [1] is greater than 6.40.
